Assay results reported in patent US7015202B2, “Use of glycyrrhizin and its derivatives as MCP-1 production inhibitors” (Minophagen Pharmaceutical Co., Ltd., priority 2002, dated 2006).

Tests used:
[1] = test system: HSV-1; assay: Sensitivity to HSV-1 infection in burn mice; format: in vivo
Experimental: Experimental Method One day after subjecting normal mice and MCP-1 knockout mice to third degree burns over 15% of their body surface area, the animals were intraperitoneally infected with HSV-1 in an amount of 1×10^1 to 1×10^6 pfu/kg body weight. For the control, normal mice were infected with HSV-1 under the same conditions. In addition, MCP-1 (50 ng/mouse) was administered subcutaneously to normal mice 2 hours before infection and 12 and 24 hours after infection. Anti-MCP-1 monoclonal antibody (10 μg/mouse) was administered subcutaneously to the burn mice 2 hours before infection and 12 and 24 hours after infection.

[2] = test system: MCP-1; assay: MCP-1 production by IL-10-stimulated peripheral blood mononuclear cells (ELISA); format: cell-based, human; conditions: PBMC from healthy individuals, 20 ng/ml IL-10, compound 100 μg/ml, 24 hours, FIG. 1
Experimental: Peripheral blood was collected from health individuals and the fraction containing peripheral blood mononuclear cells (PBMC) was isolated with Ficoll-Hypaque. Monocytes were inoculated into each well of a 96-well flat-bottom microtiter plate at a concentration of 1×10^6 cells/ml. RPMI1640 medium containing 10% FCS and antibiotics (penicillin and streptomycin) was used for culturing. The cells were cultured using an incubator maintained at a temperature of 37° C. and CO2 concentration of 5%. The cells were stimulated by addition of 20 ng/ml of IL-10 (acquired from PeproTech) to each well, and a solution of glycyrrhizin or its derivatives was added at a concentration of 100 μg/ml to all wells except the control well, after which culturing was continued for 24 hours. Following addition of glycyrrhizin, the culture supernatant was recovered and the amount of MCP-1 in the supernatant was quantified by ELISA. A commercially available kit (trade name: Human MCP-1 BD OptEIA ELISA Kit) was used for ELISA.

[3] = test system: MCP-1; assay: MCP-1 production by peripheral blood mononuclear cells from burn patients (ELISA); format: cell-based, human; conditions: 100 μg/ml, 24 hours, FIG. 2
Experimental: Experimental Method Peripheral blood was collected from burn patients (third-degree burns covering 45–78% of the body surface), and peripheral blood mononuclear cells were isolated with Ficoll-Hypaque. 1×10^6 cells/ml of the peripheral blood mononuclear cells were stimulated for 24 hours with 100 μg/ml of glycyrrhizin. Furthermore, mononuclear cells from healthy subjects were cultured under the same conditions for the control. The amount of MCP-1 in the culture supernatant was measured with the Human MCP-1 BD OptEIA ELISA Kit.

[4] = test system: MCP-1; assay: MCP-1 production by peripheral blood mononuclear cells from AIDS patients (ELISA); format: cell-based, human; conditions: 0.1 to 100 μg/ml, 24 hours, FIG. 3
Experimental: Peripheral blood was collected from AIDS patients and the fraction containing peripheral blood mononuclear cells was isolated using Ficoll-Hypaque. Mononuclear cells were inoculated into each well of a 96-well flat-bottom microtiter plate at a concentration of 1×10^6 cells/ml. The medium was the same as that used in Example 1. The cells were cultured using an incubator maintained at a temperature of 37° C. and CO2 concentration of 5%.
Glycyrrhizin solution was added to each well except the control well at a final concentration of 0.1 to 100 μg/ml followed by culturing for 24 hours.
Following addition of glycyrrhizin, the culture supernatant was recovered and the amount of MCP-1 in the supernatant was quantified by ELISA. A commercially available kit (trade name: Human MCP-1 BD OptEIA ELISA Kit) was used for ELISA.

[5] = test system: HIV; conditions: reported in recent years; cited from earlier work
[6] = test system: HIV; conditions: 150 to 225 mg (6 to 9 tablets) per day, asymptomatic carriers (AC); cited from earlier work

Compound	infection sensitivity to HSV-1 infection ([1]; normal mice dosed MCP-1 50 ng/mouse subcutaneously 2 hours before and 12 and 24 hours after infection)	production of MCP-1 induced by IL-10 [2]	production of MCP-1 by mononuclear cells from burn patients [3]	production of MCP-1 by mononuclear cells from AIDS patients [4]	infection sensitivity to HSV-1 infection ([1]; burn mice (third degree burns, 15% of body surface), HSV-1 intraperitoneal, FIG. 4)	intracellular growth of HIV [5]	survival without the onset of AIDS [6] [years]
MCP-1: monocyte chemoattractant protein-1, a CC chemokine composed of 76 amino acids	100 times higher as compared with						
CC1(C)[C@@H](O[C@H]2O[C@H](C(=O)O)[C@@H](O)[C@H](O)[C@H]2O[C@@H]2O[C@H](C(=O)O)[C@@H](O)[C@H](O)[C@H]2O)CC[C@]2(C)[C@H]3C(=O)C=C4[C@@H]5C[C@@](C)(C(=O)O)CC[C@]5(C)CC[C@@]4(C)[C@]3(C)CC[C@@H]12.N [glycyrrhizin, monoammonium glycyrrhizinate]		inhibiting the production of MCP-1 induced by IL-10	effectively inhibited the production of MCP-1	production of MCP-1 was found to be inhibited	recover to the same level as normal mice	inhibits the intracellular growth of HIV	≥ 10
